Assay results published in patent US8524899B2, “Alternative heterocycles for DNA recognition” (California Institute of Technology, priority 2003, dated 2013).
Each block holds one compound with its values, some of them ahead of it.

How the values were obtained:
Stability at acidic pH = type: physicochemical
[1] = test system: 32P-3′-labeled EcoRI/PvuII restriction fragment of plasmid pDR1 (sites 5′-TGTCTA-3′, 5′-TGTTTA-3′, 5′-TGTATA-3′, 5′-TGTGTA-3′); assay: Quantitative DNase I footprint titration on pDR1 restriction fragment; type: binding
Procedure: FIG. 4 illustrates the equilibrium association constants Ka[M^−1] for Polyamide Oligomers A-C, N, Q, and P. The reported association constants are the average values obtained from three DNase I footprint titration experiments, with the standard deviation for each data set indicated in the experiments. Assays were carried out at 22° C. at pH 7.0 in the presence of 10 mM Tris-HCl, 10 mM KCl, 10 mM MgCl2, and 5 mM CaCl2 with an equilibration time of 12 h. Specificities are give in brackets under the Ka values and calculated as Ka (match)/Ka (mismatch).
To examine whether an imidazo[4,5-b]pyridine unit Ip can replace a five-membered imidazole ring Im within an eight-ring hairpin polyamide regarding DNA binding affinity and specificity, polyamide oligomer A and its related all five-membered ring hairpin oligomer N were evaluated by DNase I footprint titrations under identical conditions. Quantitative DNase I footprint titration experiments (10 mM Tris-HCl, 10 mM KCl, 10 mM MgCl2, 5 mM CaCl2, pH 7.0, 22° C., equilibration time: 12 h) were performed on a ^32P-3′-labeled EcoRI/PvuII restriction fragment of plasmid pDR1 0 (FIG. 2). This DNA fragment contains four 6-base pair binding sites which differ at one position, 5′-TGTCTA-3′,5′-TGTTTA-3′,5′-TGTATA-3′, and 5′-TGTGTA-3′. The latter one was regarded as the possible match site having a G•C base pair under the Ip/Py or Im/Py pair, respectively.
Construction of plasmid DNA. The plasmid pDR1 was constructed by hybridization of the two oligonucleotides 5′-GATCAGGCTGTC-[…]-GCTGCTGTTTATGGACG-GCTGCTGTATATGGACGG-CTGGGCGA-3′ (SEQ ID NO:1) and 5′-AGCTTCGC-[…]-[…]-3′ (SEQ ID NO:2) followed by ligation into the BamHI/HinDIII restriction fragment of pUC19 using T4 DNA ligase. The resultant plasmid was then used to transform E. coli XL-1 Blue Supercompetent cells. Ampicillin-resistant white colonies were selected from 25 mL Luria-Bertani agar plates containing […] ampicillin, treated with XGAL and IPTG solutions and grown overnight at 37° C. Cells were harvested after overnight growth at 37° C. Large-scale plasmid purification was performed with Qiagen, purification kits. The presence of the desired insert was determined by dideoxy sequencing. DNA concentrations were determined at 260 nm using the relationship 1 OD unit) 50 μg/mL duplex DNA.
Preparation of 3′-End-Labeled DNA Restriction Fragments. The plasmid pDR1 was linearized with EcoRI and PVuII and treated with the Klenow fragment of DNA […], [R-^32P]-dATP, and [R-^32P]-TTP for 3′-end labeling. The labeled 3′-fragment was purified on a 7% nondenaturing polyacrylamide gel (5% cross-linkage) and the desired 284 base pair band isolated after visualization by autoradiography. The DNA was precipitated with 2-propanol, the pellet washed, lyophilized, and resuspended in RNase-free H2O. Chemical sequencing reactions were performed according to published protocols. (Troschütz, R.; Lückel, A. Arch. Pharm., 325, 617-619, 1992.)
DNase I Footprinting. All reactions were carried out in a volume of 400 μL according to published procedures. Quantitation by storage phosphor autoradiography and determination of equilibrium association constants were as previously described. (Trauger, J. W.; Dervan, P. B. Methods Enzymol., 340, 450-466, 2001.)

[2] = test system: EcoRI/PvuII restriction fragment of plasmid pAU2 (5′-TGGXCA-3′); assay: Quantitative DNase I footprint titration, X•Y position, plasmid pAU2; type: binding; conditions: match and mismatch sites
Text: FIG. 10 illustrates the equilibrium association constants Ka[M^−1] and specificities for polyamide oligomers D-F, R, S, and V on plasmids pAU2 and pCAB2 (X•Y position). […]
Evaluation of the DNA recognition properties of the new ligands oligomers D, E, and F at the imidazole/benzimidazole position (referred to as R•S position) should reveal the sequence preference of the benzimidazole ring. […] To examine the consequences of the ring replacement for DNA binding in terms of affinity and specificity, the benzimidazole-containing hairpin polyamides oligomers D, E, and F were evaluated by quantitative DNase I footprint titrations and the results compared to those from related oligomers R, S, and V, which were investigated under identical conditions. Quantitative DNase I footprint titration experiments (10 mm Tris-HCl, 10 mm KCl, 10 mm MgCl2, 5 mm CaCl2, pH 7.0, 22° C., equilibration time: 12 h) were performed on ^32P-3′-labeled EcoRI/PvuII restriction fragments of plasmids pPWF2 and pCAB1 (to probe the R•S position, FIG. 7); and pAU2 and pCAB2 (to probe the X•Y position, FIG. 8). Equilibrium association constants (Ka) for the polyamide oligomers at the binding sites of interest were determined as described above in Example 3.

[3] = test system: EcoRI/PvuII restriction fragment of plasmid pPWF2 (5′-TGRACA-3′); assay: Quantitative DNase I footprint titration, R•S position, plasmid pPWF2; type: binding
Text: FIG. 9 illustrates the equilibrium association constants Ka[M^−1] and specificities for polyamide oligomers D-F, R, S, and V on plasmids pPWF2 and pCAB1 (R•S position).
When replacing PyPy, PyIm, and PyHp dimers with BiPy (as in oligomer D), BiIm (as in oligomer E), and BiHp constructs (as in oligomer F), respectively, the question arises whether a) the benzimidazole ring is capable of cooperating with the imidazole ring on the opposite strand of the hairpin polyamide to specifically recognize a C•G base pair according to the binding model and the general pairing rules, and b) whether the steric and electronic peculiarities of the benzimidazole ring disturb the binding ability of the adjacent heterocycle. In order to address this question for the given polyamide design, the recognition behavior of the benzimidazole-containing polyamides was probed in two of the six base pair positions R•S and X•Y of the recognition sequence (5′-TGRACA-3′ and 5′-TGGXCA-3′ for oligomers D and F; 5′-TGRCAA-3′ and 5′-TGGXAA-3′ for oligomer E; FIG. 6) and compared with the DNA-binding ability of the related all five-membered oligomers R, S, and V at the same recognition sequences.
Evaluation of the DNA recognition properties of the new ligands oligomers D, E, and F at the imidazole/benzimidazole position (referred to as R•S position) should reveal the sequence preference of the benzimidazole ring. The binding properties at the neighboring ring position (referred to as X•Y position) were expected to disclose whether the recognition capabilities of the adjacent internal five-membered ring are disturbed by the benzimidazole moiety. To examine the consequences of the ring replacement for DNA binding in terms of affinity and specificity, the benzimidazole-containing hairpin polyamides oligomers D, E, and F were evaluated by quantitative DNase I footprint titrations and the results compared to those from related oligomers R, S, and V, which were investigated under identical conditions. Quantitative DNase I footprint titration experiments (10 mm Tris-HCl, 10 mm KCl, 10 mm MgCl2, 5 mm CaCl2, pH 7.0, 22° C., equilibration time: 12 h) were performed on ^32P-3′-labeled EcoRI/PvuII restriction fragments of plasmids pPWF2 and pCAB1 (to probe the R•S position, FIG. 7); and pAU2 and pCAB2 (to probe the X•Y position, FIG. 8). Equilibrium association constants (Ka) for the polyamide oligomers at the binding sites of interest were determined as described above in Example 3.

5′-AGWWCT-3′ (W=A, T) = assay: DNase I footprint titration, multiple Hz/Py pairs; type: binding
Procedure: FIG. 17 is a table showing the association equilibrium constant Ka[M^−1] for polyamide oligomers H and K. The reported association constants are the average values obtained from three DNase I footprint titration experiments, with the standard deviation given in parenthesis. Assays were carried out at 22° C. at pH 7.0 in the presence of 10 mM Tris-HCl, 10 mM KCl, 10 mM MgCl2, and 5 mM CaCl2 at pH 7.0.
For polyamides Im-Hz-Py-Py-γ-Im-Hz-Py-Py-β-Dp (oligomer H) and Im-Py-Hz-Py-γ-Im-Py-Hz-Py-β-Dp (oligomer K) the ability of multiple Hz/Py pairs to distinguish poly A,T sequences was tested by varying two DNA base pairs across from the Hz/Py and Py/Hz pairs (bolded in the sequences listed above) within the parent-sequence context, 5′-AGWWCT-3′, (W=A, T) and comparing the relative affinities of the resulting complexes (FIG. 16). Equilibrium association constants (Ka) for polyamide oligomers containing multiple Hp/Py pairs have been reported and are included for comparison with values presented here (FIG. 17). […] The recognition profiles of polyamide oligomers containing multiple Hz/Py pairs (oligomers H and K) are similar to those reported for multiple Hp/Py pairs.
Footprinting Experiments.—Plasmids pDHN1 and pDEH10 were constructed and 5′-radiolabeled as previously described. […]

- stability at acidic pH (Stability at acidic pH): stable
- selectivity of T•A over A•T ([1]; 5′-TGTTTA-3′ vs A•T site): 18 fold
- binding at C•G site ([1]; C•G site (5′-TGTCTA-3′), for Q concentration range up to 200 nM): No binding was observed
- lower affinity at G•C mismatch site 5′-TGTGTA-3′ ([1]; relative to match site 5′-TGTTTA-3′): at least 80 fold
- equilibrium association constant Ka ([1]; site 5′-TGTTTA-3′ (T•A), pH 7.0, 22° C., equilibration 12 h): 5.7e+08 M⁻¹
SMILES: CNC(=O)c1cc(NC(=O)c2cc(NC(=O)c3cc(NC(=O)c4cc(NC(=O)[C@H](N)CCNC(=O)c5cc(NC(=O)c6ccc7nc(-c8cc(NC(=O)c9nccn9C)cn8C)[nH]c7c6O)cn5C)cn4C)cn3C)cn2C)cn1C [B]

- binding affinities and specificities compared with related oligomers R, V, X•Y position [2]: same order of magnitude
- match site Ka, R•S position ([3]; 5′-TGRACA-3′ match site, pH 7.0, 22° C., 12 h): 2.5e+10 M⁻¹
- match site affinity compared with related all five-membered oligomer, R•S position ([3]; D vs R, F vs V): six to seven-fold higher
- single base pair mismatch specificities compared with related oligomer, R•S position ([3]; D vs R, F vs V): comparable
SMILES: CNC(=O)c1cc(NC(=O)c2ccc3nc(-c4c(O)c(NC(=O)c5nc(NC(=O)[C@H](N)CCNC(=O)c6cc(NC(=O)c7cc(NC(=O)c8nc(NC(=O)c9nccn9C)cn8C)cn7C)cn6C)cn5C)cn4C)[nH]c3c2)cn1C [F]

- specificity for match sequence 5′-AGTACT-3′ over 5′-AGAACT-3′ and 5′-AGATCT-3′ (5′-AGWWCT-3′ (W=A, T)): greater than 14 fold
SMILES: CN(C)CCCNC(=O)CCNC(=O)c1cc(NC(=O)c2cc(NC(=O)c3ccc4nc(-c5nc(NC(=O)CCCNC(=O)c6cc(NC(=O)c7cc(NC(=O)c8ccc9nc(-c%10nccn%10C)[nH]c9c8O)cn7C)cn6C)cn5C)[nH]c4c3O)cn2C)cn1C [H]

- specificity for match sequence 5′-AGTACT-3′ over 5′-AGAACT-3′ and 5′-AGATCT-3′ (5′-AGWWCT-3′ (W=A, T)): poor site selectivity
SMILES: CN(C)CCCNC(=O)CCNC(=O)c1cc(NC(=O)c2ccc3nc(-c4cc(NC(=O)c5nc(NC(=O)CCCNC(=O)c6cc(NC(=O)c7ccc8nc(-c9cc(NC(=O)c%10nccn%10C)cn9C)[nH]c8c7O)cn6C)cn5C)cn4C)[nH]c3c2O)cn1C [K]
